In patent US20050100902A1, “5-cyano-1h-indole derivatives as antagonist of the inerleukine-8 receptors” (priority 2001, published 2005):

melting point: 158 to 160 °C
SMILES: N#Cc1ccc2[nH]c(-c3ccc(Cl)c(Cl)c3)c(CCCC(=O)O)c2c1 [Example 1, 2-(3,4-dichlorophenyl)-5-cyano-1H-indole-3-butanoic Acid]
